According to patent publication US5665704A, “Receptor specific atrial natriuretic peptides” (Genentech, Inc., priority 1995, dated 1997):
Like-named read-outs stand apart in the source and are kept apart here. Bridge positions count the residues as written; N and C are the ends. Square brackets hold non-standard residues; d marks the D form. Peptide text beside a SMILES is read from it. Cha = N[C@@H](CC1CCCCC1)C(=O)O; hCys = N[C@@H](CCS)C(=O)O; Mpa = O=C(O)CCS

Legend:
hNPR-C = target: T1, hNPR-C (Homo sapiens, UniProt P17342); assay: Binding affinity for clearance receptor hNPR-C
T1 sequence (P17342 27-541): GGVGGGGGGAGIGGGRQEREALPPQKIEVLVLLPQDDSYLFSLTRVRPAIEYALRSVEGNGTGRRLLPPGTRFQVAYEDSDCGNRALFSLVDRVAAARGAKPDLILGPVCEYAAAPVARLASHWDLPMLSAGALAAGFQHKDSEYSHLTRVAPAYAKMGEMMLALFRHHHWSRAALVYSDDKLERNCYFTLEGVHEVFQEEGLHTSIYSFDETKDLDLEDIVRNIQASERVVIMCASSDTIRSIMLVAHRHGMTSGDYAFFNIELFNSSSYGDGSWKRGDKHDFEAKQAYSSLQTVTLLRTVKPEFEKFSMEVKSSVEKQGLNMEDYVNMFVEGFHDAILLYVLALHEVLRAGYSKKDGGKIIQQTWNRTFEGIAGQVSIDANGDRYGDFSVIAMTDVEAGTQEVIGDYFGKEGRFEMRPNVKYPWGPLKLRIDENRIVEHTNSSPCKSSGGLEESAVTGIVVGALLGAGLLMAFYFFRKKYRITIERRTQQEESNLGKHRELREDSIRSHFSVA
Source text: For assay systems to measure binding of hANF and the compounds of this invention to hNPR-C see: Schank, D. B., et al., Biochem. Biophys. Res. Comm. 127:433-442 (1985); Scarborough, R. M., J. Biol. Chem. 261:12960-12964 and WO 90/01940.

hNPR-A = target: T2, hNPR-A (Homo sapiens, UniProt P16066); assay: Binding affinity for hNPR-A (competitive displacement of I^125 labeled wild-type ANF); settings: Table I; read-out: Binding Affinity IC50 (pM) hNPR-A
T2 sequence (P16066 33-1061): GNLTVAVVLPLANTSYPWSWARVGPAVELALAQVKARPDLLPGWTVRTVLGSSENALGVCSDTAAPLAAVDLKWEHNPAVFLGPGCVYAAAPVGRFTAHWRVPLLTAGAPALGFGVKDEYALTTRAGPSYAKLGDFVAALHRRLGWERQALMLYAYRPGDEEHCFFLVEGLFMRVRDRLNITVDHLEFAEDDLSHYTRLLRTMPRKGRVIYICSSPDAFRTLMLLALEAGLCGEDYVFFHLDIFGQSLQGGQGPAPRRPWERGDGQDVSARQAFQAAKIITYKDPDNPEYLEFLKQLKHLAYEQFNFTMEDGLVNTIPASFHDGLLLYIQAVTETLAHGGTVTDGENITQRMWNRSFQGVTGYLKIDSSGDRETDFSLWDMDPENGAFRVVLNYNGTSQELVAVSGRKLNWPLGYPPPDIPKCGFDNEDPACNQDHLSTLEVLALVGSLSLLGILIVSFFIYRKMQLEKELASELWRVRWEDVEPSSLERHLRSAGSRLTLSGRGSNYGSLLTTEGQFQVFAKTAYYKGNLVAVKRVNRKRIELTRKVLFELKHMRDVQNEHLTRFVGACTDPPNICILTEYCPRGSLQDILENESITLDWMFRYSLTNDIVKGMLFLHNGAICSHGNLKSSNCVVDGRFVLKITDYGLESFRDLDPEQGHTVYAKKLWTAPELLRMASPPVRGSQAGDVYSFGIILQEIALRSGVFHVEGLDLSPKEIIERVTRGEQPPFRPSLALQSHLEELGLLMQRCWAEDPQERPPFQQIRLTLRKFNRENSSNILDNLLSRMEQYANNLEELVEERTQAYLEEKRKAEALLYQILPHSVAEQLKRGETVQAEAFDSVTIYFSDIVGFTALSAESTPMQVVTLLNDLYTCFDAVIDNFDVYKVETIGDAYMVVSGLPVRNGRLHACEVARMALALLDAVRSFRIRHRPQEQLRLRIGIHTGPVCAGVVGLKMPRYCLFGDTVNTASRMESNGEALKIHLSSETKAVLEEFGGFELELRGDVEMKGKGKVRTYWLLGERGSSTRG

[1] = Table I, read-out: Binding Affinity IC50 (pM) hNPR-C

| Compound | IC50 (hNPR-C; [1]) | IC50 (hNPR-A) | IC50 (hNPR-C) |
| --- | --- | --- | --- |
| CC[C@H](C)[C@@H]1NC(=O)[C@H](CCCNC(=N)N)NC(=O)[C@H](CC(=O)O)NC(=O)[C@H]([C@@H](C)CC)NC(=O)[C@H](CO)NC(=O)CNC(=O)[C@H]([C@@H](C)O)NC(=O)[C@H](Cc2ccccc2)NC(=O)[C@@H](CO)NC(=O)[C@@H](NC(=O)[C@H](CO)NC(=O)[C@H](CO)NC(=O)[C@H](CCCNC(=N)N)NC(=O)[C@H](CCCNC(=N)N)NC(=O)[C@H](CC(C)C)NC(=O)[C@@H](N)CO)CSSC[C@@H](C(=O)N[C@@H](CC(N)=O)C(=O)N[C@@H](CO)C(=O)N[C@@H](Cc2ccccc2)C(=O)N[C@@H](CCCNC(=N)N)C(=O)N[C@@H](Cc2ccc(O)cc2)C(=O)O)NC(=O)CNC(=O)[C@H](CC(C)C)NC(=O)CNC(=O)[C@H](CO)NC(=O)[C@H](CCC(N)=O)NC(=O)[C@H](C)NC(=O)[C@H](CCCNC(=N)N)NC1=O [ANF74] (H-SLRRSSC[dS]FTGSIDRIRAQSGLGCNSFRY-OH; disulfide 7-24) | 1e+07 pM | 29400 pM | – |
| CC[C@H](C)[C@@H]1NC(=O)[C@H](CCCNC(=N)N)NC(=O)[C@H](CC(=O)O)NC(=O)[C@H](CCSC)NC(=O)[C@H](CO)NC(=O)CNC(=O)[C@H]([C@@H](C)O)NC(=O)[C@H](Cc2ccccc2)NC(=O)[C@@H](NC(=O)[C@H](CO)NC(=O)[C@H](CO)NC(=O)[C@H](CCCNC(=N)N)NC(=O)[C@H](CCCNC(=N)N)NC(=O)[C@H](CC(C)C)NC(=O)[C@@H](N)CO)CSSC[C@@H](C(=O)N[C@@H](CC(N)=O)C(=O)N[C@@H](CO)C(=O)N[C@@H](Cc2ccccc2)C(=O)N[C@@H](CCCNC(=N)N)C(=O)N[C@@H](Cc2ccc(O)cc2)C(=O)O)NC(=O)CNC(=O)[C@H](CC(C)C)NC(=O)CNC(=O)[C@H](CO)NC(=O)[C@H](CCC(N)=O)NC(=O)[C@H](C)NC(=O)CNC1=O [ANF50] (H-SLRRSSCFTGSMDRIGAQSGLGCNSFRY-OH; disulfide 7-23) | 251000 pM | 570 pM | – |
| CC[C@H](C)[C@@H]1NC(=O)[C@H](CCCNC(=N)N)NC(=O)[C@H](CC(=O)O)NC(=O)[C@H]([C@@H](C)CC)NC(=O)[C@H](CO)NC(=O)CNC(=O)[C@H]([C@@H](C)O)NC(=O)[C@H](CC2CCCCC2)NC(=O)[C@@H](NC(=O)[C@H](CO)NC(=O)[C@H](CO)NC(=O)[C@H](CCCNC(=N)N)NC(=O)[C@H](CCCNC(=N)N)NC(=O)[C@H](CC(C)C)NC(=O)[C@@H](N)CO)CSSC[C@@H](C(=O)N[C@@H](CC(N)=O)C(=O)N[C@@H](CO)C(=O)N[C@@H](Cc2ccccc2)C(=O)N[C@@H](CCCNC(=N)N)C(=O)N[C@@H](Cc2ccc(O)cc2)C(=O)O)NC(=O)CNC(=O)[C@H](CC(C)C)NC(=O)CNC(=O)[C@H](CO)NC(=O)[C@H](CCC(N)=O)NC(=O)[C@H](C)NC(=O)[C@H](CCCNC(=N)N)NC1=O [ANF79] (H-SLRRSSC[Cha]TGSIDRIRAQSGLGCNSFRY-OH; disulfide 7-23) | 1.48e+06 pM | 2.4 pM | – |
| CC[C@H](C)[C@@H]1NC(=O)[C@H](CCCNC(=N)N)NC(=O)[C@H](CC(=O)O)NC(=O)[C@H]([C@@H](C)CC)NC(=O)[C@H](CO)NC(=O)CNC(=O)[C@@H](C)NC(=O)[C@H](Cc2ccccc2)NC(=O)CCSSC[C@@H](C(=O)N[C@@H](CC(N)=O)C(=O)N[C@@H](CO)C(=O)N[C@@H](Cc2ccccc2)C(=O)N[C@@H](CCCNC(=N)N)C(=O)N[C@@H](Cc2ccc(O)cc2)C(=O)O)NC(=O)CNC(=O)[C@H](CC(C)C)NC(=O)CNC(=O)[C@H](CO)NC(=O)[C@H](CCC(N)=O)NC(=O)[C@H](C)NC(=O)[C@H](CCCNC(=N)N)NC1=O [ANF81] ([Mpa]F[dA]GSIDRIRAQSGLGCNSFRY-OH; disulfide 1-17) | 3.86e+06 pM | 1400 pM | – |
| CC[C@H](C)[C@@H]1NC(=O)[C@H](CCCNC(=N)N)NC(=O)[C@H](CC(=O)O)NC(=O)[C@H]([C@@H](C)CC)NC(=O)[C@H](CO)NC(=O)CNC(=O)[C@H]([C@@H](C)O)NC(=O)[C@H](Cc2ccccc2)NC(=O)[C@@H](NC(=O)[C@H](CO)NC(=O)[C@H](CO)NC(=O)[C@H](CCCNC(=N)N)NC(=O)[C@H](CCCNC(=N)N)NC(=O)[C@H](CC(C)C)NC(=O)[C@@H](N)CO)CSSC[C@@H](C(=O)N[C@@H](CC(N)=O)C(=O)N[C@@H](CO)C(=O)N[C@@H](Cc2ccccc2)C(=O)N[C@@H](CCCNC(=N)N)C(=O)N[C@@H](Cc2ccc(O)cc2)C(=O)O)NC(=O)CNC(=O)[C@H](CC(C)C)NC(=O)CNC(=O)[C@H](CO)NC(=O)[C@H](CCC(N)=O)NC(=O)[C@H](C)NC(=O)[C@H](CCCNC(=N)N)NC1=O [ANF27] | 1e+06 pM | – | – |
| CC[C@H](C)[C@@H]1NC(=O)[C@H](CCCNC(=N)N)NC(=O)[C@H](CC(=O)O)NC(=O)[C@H]([C@@H](C)CC)NC(=O)[C@H](CO)NC(=O)CNC(=O)[C@@H](C)NC(=O)[C@H](Cc2ccccc2)NC(=O)[C@@H](NC(=O)[C@H](CO)NC(=O)[C@H](CO)NC(=O)[C@H](CCCNC(=N)N)NC(=O)[C@H](CCCNC(=N)N)NC(=O)[C@H](CC(C)C)NC(=O)[C@@H](N)CO)CSSC[C@@H](C(=O)N[C@@H](CC(N)=O)C(=O)N[C@@H](CO)C(=O)N[C@@H](Cc2ccccc2)C(=O)N[C@@H](CCCNC(=N)N)C(=O)N[C@@H](Cc2ccc(O)cc2)C(=O)O)NC(=O)CNC(=O)[C@H](CC(C)C)NC(=O)CNC(=O)[C@H](CO)NC(=O)[C@H](CCC(N)=O)NC(=O)[C@H](C)NC(=O)[C@H](CCCNC(=N)N)NC1=O [ANF78] | – | – | 8640 pM |
| CC[C@H](C)[C@@H]1NC(=O)[C@H](CCCNC(=N)N)NC(=O)[C@H](CC(=O)O)NC(=O)[C@H]([C@@H](C)CC)NC(=O)[C@H](CCCNC(=N)N)NC(=O)CNC(=O)CNC(=O)[C@H](Cc2ccccc2)NC(=O)[C@@H](NC(=O)[C@H](CO)NC(=O)[C@H](CO)NC(=O)[C@H](CCCNC(=N)N)NC(=O)[C@H](CCCNC(=N)N)NC(=O)[C@H](CC(C)C)NC(=O)[C@@H](N)CO)CSSC[C@@H](C(=O)N[C@@H](CC(N)=O)C(=O)N[C@@H](CO)C(=O)N[C@@H](Cc2ccccc2)C(=O)N[C@@H](CCCNC(=N)N)C(=O)N[C@@H](Cc2ccc(O)cc2)C(=O)O)NC(=O)CNC(=O)[C@H](CC(C)C)NC(=O)CNC(=O)[C@H](CO)NC(=O)[C@H](CCC(N)=O)NC(=O)[C@H](C)NC(=O)[C@H](CCCNC(=N)N)NC1=O [ANF24] | 5640 pM | – | – |
| CC[C@H](C)[C@@H]1NC(=O)[C@H](CO)NC(=O)[C@H](CC(=O)O)NC(=O)[C@H](CC(C)C)NC(=O)[C@H](CO)NC(=O)CNC(=O)[C@H]([C@@H](C)O)NC(=O)[C@H](Cc2ccccc2)NC(=O)[C@@H](NC(=O)[C@H](CO)NC(=O)[C@H](CO)NC(=O)[C@H](CCCNC(=N)N)NC(=O)[C@H](CC(=O)O)NC(=O)[C@H](CC(C)C)NC(=O)[C@@H](N)CO)CSSC[C@@H]2NC(=O)CNC(=O)[C@H](CC(C)C)NC(=O)CNC(=O)[C@H](CO)NC(=O)[C@H](CCSSCC[C@@H](C(=O)O)NC(=O)[C@H](CCCNC(=N)N)NC(=O)[C@H](Cc3ccccc3)NC(=O)[C@H](CO)NC(=O)[C@H](CC(N)=O)NC2=O)NC(=O)[C@H](C)NC(=O)[C@H](CCCNC(=N)N)NC1=O [ANF70] (H-SLDRSSCFTGSLDSIRA[hCys]SGLGCNSFR[hCys]-OH; disulfide 7-23, 18-28) | – | 3300 pM | – |
